Test results as given in the supplement of paper PMC6045584.
± gives the standard deviation of the averaged measurements.

How the values were obtained:
[1] = compound: CNC(=O)c1cc(Oc2ccc(NC(=O)Nc3ccc(Cl)c(C(F)(F)F)c3)cc2)ccn1 [SORAFENIB]; test: area under dose-response curve of surviving fraction (unscaled, Aref=0) (surviving fraction x log10(nM)); higher = more resistant; settings: exposure time: 5 days; dose range 0.5-1000 nM
Procedure, shortened: (§1)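 Inhibitor was applied to tumour cell lines at eight concentrations (0.5 to 1000 nM) for five days in 384-well plates. Luminescence from CellTiter-Glo, scaled to DMSO-only wells, gave surviving fractions in three screens per line, and these were fitted by 3-parameter logistic regression with the drc R package. The area under the curve is an unscaled activity area. Aref was 0, and dose was on a log10 scale.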

[2] = compound: Oc1nc(-c2ccc(C(F)(F)F)cc2)nc2c1CSCC2 [XAV-939]; test: as above; settings: exposure time: 5 days; dose range 0.5-1000 nM
Procedure, shortened: as §1

[3] = compound: C[C@@H](Oc1cc(-c2cnn(C3CCNCC3)c2)cnc1N)c1c(Cl)ccc(F)c1Cl [CRIZOTINIB]; test: as above; settings: exposure time: 5 days; dose range 0.5-1000 nM
Procedure, shortened: as §1

[4] = compound: O=C(c1cc(Cc2n[nH]c(=O)c3ccccc23)ccc1F)N1CCN(C(=O)C2CC2)CC1 [OLAPARIB]; test: as above; settings: exposure time: 5 days; dose range 0.5-1000 nM
Procedure, shortened: as §1

[5] = compound: COc1cc2c(Oc3ccc(NC(=O)C4(C(=O)Nc5ccc(F)cc5)CC4)cc3F)ccnc2cc1OCCCN1CCOCC1 [FORETINIB]; test: surviving fraction relative to DMSO-only wells; higher = less growth inhibition; settings: exposure time: 5 days
Procedure, shortened: (§2)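 Five days of continuous inhibitor exposure, at 0.5, 1, 5, 10, 50, 100, 500 and 1000 nM, followed a 24-hour period after log-phase tumour cell lines were seeded at 250–500 cells per well in 384-well plates. Surviving fraction was derived from CellTiter-Glo luminescence relative to the median of DMSO-only wells. Plates were read after 10 minutes at room temperature, and lines screened three times were kept only if replicate Pearson r >0.7 and median Z' >0.3.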

[6] = compound: COc1cc2ncnc(Nc3ccc(F)c(Cl)c3)c2cc1NC(=O)/C=C/CN1CCCCC1; test: as above; settings: exposure time: 5 days
Procedure, shortened: as §2

G292 BONE
area under dose-response curve [1]: 3.26 | area under dose-response curve [2]: 3.14 | area under dose-response curve [3]: 3 | area under dose-response curve [4]: 3.17 | surviving fraction ([5]; 0.5 nM): 1.01 ± 0.049 | surviving fraction ([5]; 1 nM): 0.963 ± 0.051 | surviving fraction ([5]; 5 nM): 1.04 ± 0.015 | surviving fraction ([5]; 10 nM): 1.02 ± 0.046 | surviving fraction ([5]; 50 nM): 0.905 ± 0.03 | surviving fraction ([5]; 100 nM): 0.839 ± 0.023 | surviving fraction ([5]; 500 nM): 0.351 ± 0.018 | surviving fraction ([5]; 1000 nM): 0.171 ± 0.02 | surviving fraction ([6]; 0.5 nM): 1.03 ± 0.021 | surviving fraction ([6]; 1 nM): 0.979 ± 0.054 | surviving fraction ([6]; 5 nM): 1.05 ± 0.031 | surviving fraction ([6]; 10 nM): 1.02 ± 0.03 | surviving fraction ([6]; 50 nM): 0.981 ± 0.052 | surviving fraction ([6]; 100 nM): 0.9292 ± 0.0084 | surviving fraction ([6]; 500 nM): 0.693 ± 0.029 | surviving fraction ([6]; 1000 nM): 0.424 ± 0.013

HCC38 BREAST
area under dose-response curve [1]: 4.12 | area under dose-response curve [2]: 3.17 | area under dose-response curve [4]: 2.57 | surviving fraction ([5]; 0.5 nM): 1.05 ± 0.18 | surviving fraction ([5]; 1 nM): 1.01 ± 0.34 | surviving fraction ([5]; 5 nM): 0.885 ± 0.2 | surviving fraction ([5]; 10 nM): 1.11 ± 0.24 | surviving fraction ([5]; 50 nM): 1.03 ± 0.41 | surviving fraction ([5]; 100 nM): 0.901 ± 0.15 | surviving fraction ([5]; 500 nM): 0.521 ± 0.077 | surviving fraction ([5]; 1000 nM): 0.428 ± 0.12 | surviving fraction ([6]; 0.5 nM): 1.02 ± 0.082 | surviving fraction ([6]; 1 nM): 1.21 ± 0.21 | surviving fraction ([6]; 5 nM): 1.16 ± 0.044 | surviving fraction ([6]; 10 nM): 1.22 ± 0.26 | surviving fraction ([6]; 50 nM): 0.954 ± 0.26 | surviving fraction ([6]; 100 nM): 1.07 ± 0.046 | surviving fraction ([6]; 500 nM): 0.863 ± 0.099 | surviving fraction ([6]; 1000 nM): 0.716 ± 0.06

HCC70 BREAST
area under dose-response curve [1]: 3.81 | area under dose-response curve [3]: 3.69 | area under dose-response curve [4]: 3.59 | surviving fraction ([5]; 0.5 nM): 1.08 ± 0.04 | surviving fraction ([5]; 1 nM): 1.13 ± 0.023 | surviving fraction ([5]; 5 nM): 1.13 ± 0.043 | surviving fraction ([5]; 10 nM): 1.11 ± 0.046 | surviving fraction ([5]; 50 nM): 1.17 ± 0.066 | surviving fraction ([5]; 100 nM): 1.2 ± 0.044 | surviving fraction ([5]; 500 nM): 1.1 ± 0.1 | surviving fraction ([5]; 1000 nM): 0.718 ± 0.16 | surviving fraction ([6]; 0.5 nM): 1.11 ± 0.059 | surviving fraction ([6]; 1 nM): 1.06 ± 0.11 | surviving fraction ([6]; 5 nM): 0.926 ± 0.074 | surviving fraction ([6]; 10 nM): 0.957 ± 0.11 | surviving fraction ([6]; 50 nM): 0.956 ± 0.11 | surviving fraction ([6]; 100 nM): 0.975 ± 0.049 | surviving fraction ([6]; 500 nM): 0.897 ± 0.091 | surviving fraction ([6]; 1000 nM): 0.842 ± 0.031

HMLE3 BREAST
area under dose-response curve [2]: 3.15 | area under dose-response curve [4]: 3.22 | surviving fraction ([5]; 0.5 nM): 1.08 ± 0.031 | surviving fraction ([5]; 1 nM): 1.15 ± 0.075 | surviving fraction ([5]; 5 nM): 1.11 ± 0.023 | surviving fraction ([5]; 10 nM): 1.07 ± 0.011 | surviving fraction ([5]; 50 nM): 0.913 ± 0.1 | surviving fraction ([5]; 100 nM): 0.86 ± 0.054 | surviving fraction ([5]; 500 nM): 0.558 ± 0.076 | surviving fraction ([5]; 1000 nM): 0.168 ± 0.023 | surviving fraction ([6]; 0.5 nM): 0.953 ± 0.036 | surviving fraction ([6]; 1 nM): 0.934 ± 0.063 | surviving fraction ([6]; 5 nM): 0.917 ± 0.084 | surviving fraction ([6]; 10 nM): 0.953 ± 0.065 | surviving fraction ([6]; 50 nM): 0.921 ± 0.069 | surviving fraction ([6]; 100 nM): 0.932 ± 0.052 | surviving fraction ([6]; 500 nM): 0.793 ± 0.076 | surviving fraction ([6]; 1000 nM): 0.679 ± 0.035

HMT3552 BREAST
area under dose-response curve [3]: 3.05 | surviving fraction ([5]; 0.5 nM): 1.02 ± 0.069 | surviving fraction ([5]; 1 nM): 1.03 ± 0.05 | surviving fraction ([5]; 5 nM): 1.02 ± 0.017 | surviving fraction ([5]; 10 nM): 0.928 ± 0.12 | surviving fraction ([5]; 50 nM): 0.955 ± 0.058 | surviving fraction ([5]; 100 nM): 0.971 ± 0.013 | surviving fraction ([5]; 500 nM): 0.599 ± 0.034 | surviving fraction ([5]; 1000 nM): 0.114 ± 0.0027 | surviving fraction ([6]; 0.5 nM): 0.902 | surviving fraction ([6]; 1 nM): 0.831 | surviving fraction ([6]; 5 nM): 0.845 | surviving fraction ([6]; 10 nM): 0.802 | surviving fraction ([6]; 50 nM): 0.827 | surviving fraction ([6]; 100 nM): 0.792 | surviving fraction ([6]; 500 nM): 0.65 | surviving fraction ([6]; 1000 nM): 0.302

HS578T BREAST
area under dose-response curve [1]: 2.64 | area under dose-response curve [2]: 3.76 | area under dose-response curve [4]: 2.79 | surviving fraction ([5]; 0.5 nM): 1.01 ± 0.084 | surviving fraction ([5]; 1 nM): 1.09 ± 0.079 | surviving fraction ([5]; 5 nM): 1.2 ± 0.19 | surviving fraction ([5]; 10 nM): 1.18 ± 0.038 | surviving fraction ([5]; 50 nM): 1.16 ± 0.17 | surviving fraction ([5]; 100 nM): 1.12 ± 0.21 | surviving fraction ([5]; 500 nM): 0.655 ± 0.088 | surviving fraction ([5]; 1000 nM): 0.585 ± 0.039 | surviving fraction ([6]; 0.5 nM): 1.07 ± 0.1 | surviving fraction ([6]; 1 nM): 1.15 ± 0.14 | surviving fraction ([6]; 5 nM): 1.03 ± 0.12 | surviving fraction ([6]; 10 nM): 0.956 ± 0.17 | surviving fraction ([6]; 50 nM): 0.985 ± 0.2 | surviving fraction ([6]; 100 nM): 1.09 ± 0.1 | surviving fraction ([6]; 500 nM): 0.688 ± 0.19 | surviving fraction ([6]; 1000 nM): 0.412 ± 0.091
